Experimental data: US20100056516A1 (priority 2006, published 2010)

Experiments:
[1] = target: HIV integrase (Human immunodeficiency virus type 1 group M subtype B, UniProt P04585); assay: integrase strand transfer assay (STA); assay type: biochemical; conditions: integrase strand transfer; read-out: IC50 in the STA assay
[2] = test system: HXB2 virus; assay: microbe, parasite or virus in culture; assay type: cell-based, HIV; conditions: Human immunodeficiency virus 1, HXB2, HeLaP4-2, read-out: antiviral IC50 (SCIA-B)
How it was run: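 Single-cycle infectivity assay in HeLa P4-2 cells measuring inhibition of acute HIV infection, using HXB2 virus.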

Structure (SMILES) | IC50 [1] [µM] | IC50 [2] [µM]
O=c1cc(NCC(c2ccccc2)N2CCOCC2)c2cccnc2n1O (centres unmarked) [Example 110, 1-Hydroxy-4-[(2-morpholin-4-yl-2-phenylethyl)amino]-1,8-naphthyridin-2(1H)-one] | < 50 | < 100
O=c1cc(NC2CCN(Cc3ccccc3)C2)c2cccnc2n1O (centres unmarked) [Example 112, 4-[(1-Benzylpyrrolidin-3-yl)amino]-1-hydroxy-1,8-naphthyridin-2(1H)-one] | < 50 | < 100
O=c1cc(N[C@@H]2CCN(Cc3ccccc3)C2)c2cccnc2n1O [Example 113, 4-{[(3R)-1-Benzylpyrrolidin-3-yl]amino}-1-hydroxy-1,8-naphthyridin-2(1H)-one] | < 50 | < 100
O=c1cc(N[C@H]2CCN(Cc3ccccc3)C2)c2cccnc2n1O [Example 114, 4-{[(3S)-1-Benzylpyrrolidin-3-yl]amino}-1-hydroxy-1,8-naphthyridin-2(1H)-one] | < 50 | < 100
CN(Cc1cccc(Cn2cncn2)c1)c1cc(=O)n(O)c2ncccc12 [Example 116] | < 50 | < 100
O=c1cc(N2CCC[C@@H]2CF)c2cccnc2n1O [Example 117, 4-[(2R)-2-(fluoromethyl)pyrrolidin-1-yl]-1-hydroxy-1,8-naphthyridin-2(1H)-one] | < 50 | < 100
O=c1cc(N2CCCC(F)C2)c2cccnc2n1O (centres unmarked) [Example 118, 4-(3-fluoropiperidin-1-yl)-1-hydroxy-1,8-naphthyridin-2(1H)-one] | < 50 | < 100
O=c1cc(N2CCc3ccccc3C2)c2cccnc2n1O [Example 119, 4-(3,4-dihydroisoquinolin-2(1H)-yl)-1-hydroxy-1,8-naphthyridin-2(1H)-one] | < 50 | < 100
N#Cc1ccc2c(c1)CN(c1cc(=O)n(O)c3ncccc13)CC2 [Example 120, 2-(1-hydroxy-2-oxo-1,2-dihydro-1,8-naphthyridin-4-yl)-1,2,3,4-tetrahydroisoquinoline-7-carbonitrile] | < 50 | < 100
COC(=O)c1ccc2c(c1)CN(c1cc(=O)n(O)c3ncccc13)CC2 [Example 122, 4-[7-(methoxycarbonyl)-3,4-dihydroisoquinolin-2(1H)-yl]-1-hydroxy-1,8-naphthyridin-2(1H)-one] | < 50 | < 100
C[C@@H](Nc1cc(=O)n(O)c2ncccc12)c1ccccc1 [Example 125, 1-hydroxy-4-{[(1R)-1-phenylethyl]amino}-1,8-naphthyridin-2(1H)-one] | < 50 | < 100
O=c1cc(NCc2ccccc2)c2cccnc2n1O [Example 126, 4-(benzylamino)-1-hydroxy-1,8-naphthyridin-2(1H)-one] | < 50 | < 100
CCOC(=O)c1c(Nc2ccccc2)c2cccnc2n(O)c1=O [Example 127, Ethyl 4-anilino-1-hydroxy-2-oxo-1,2-dihydro-1,8-naphthyridine-3-carboxylate] | < 50 | < 100
CCOC(=O)c1c(NCc2ccccc2)c2cccnc2n(O)c1=O [Example 128, Ethyl 4-(benzylamino)-1-hydroxy-2-oxo-1,2-dihydro-1,8-naphthyridine-3-carboxylate] | < 50 | < 100
CCOC(=O)c1c(N[C@@H](CO)c2ccccc2)c2cccnc2n(O)c1=O [Example 129, Ethyl 1-hydroxy-4-{[(1R)-2-hydroxy-1-phenylethyl]amino}-2-oxo-1,2-dihydro-1,8-naphthyridine-3-carboxylate] | < 50 | < 100
CN(Cc1ccccc1)c1cc(=O)n(O)c2ncccc12 [Example 130, 4-[benzyl(methyl)amino]-1-hydroxy-1,8-naphthyridin-2(1H)-one] | < 50 | < 100
O=c1cc(N2CCN(c3ccccc3)CC2)c2cccnc2n1O [Example 131, 1-hydroxy-4-(4-phenylpiperazin-1-yl)-1,8-naphthyridin-2(1H)-one] | < 50 | < 100
O=c1cc(NCCc2ccccc2)c2cccnc2n1O [Example 132, 1-hydroxy-4-[(2-phenylethyl)amino]-1,8-naphthyridin-2(1H)-one] | < 50 | < 100
O=c1cc(N2CCC(Cc3ccccc3)CC2)c2cccnc2n1O [Example 133, 4-(4-benzylpiperidin-1-yl)-1-hydroxy-1,8-naphthyridin-2(1H)-one] | < 50 | < 100
O=c1cc(N2CCN(Cc3ccccc3)CC2)c2cccnc2n1O [Example 136, 4-(4-benzylpiperazin-1-yl)-1-hydroxy-1,8-naphthyridin-2(1H)-one] | < 50 | < 100
O=c1cc(N2CCC(N3CCOCC3)CC2)c2cccnc2n1O [Example 138, 1-hydroxy-4-[4-(4-morpholinyl)-1-piperidinyl]-1,8-naphthyridin-2(1H-one)] | < 50 | < 100
O=c1cc(Nc2ccccc2N2CCCCC2)c2cccnc2n1O [Example 139, 1-hydroxy-4-{[2-(1-piperidinyl)pheny]amino}-1,8-naphthyridin-2(1H-one)] | < 50 | < 100

Structure (SMILES) | IC50 [1] [µM] | IC50 [2] [µM]
O=c1cc(NCc2ccccc2Cl)c2cccnc2n1O [Example 141, 4-[(2-chlorobenzyl)amino]-1-hydroxy-1,8-naphthyridin-2(1H-one)] | < 50 | < 100
Cc1ccc(CNc2cc(=O)n(O)c3ncccc23)cc1 [Example 143, 1-hydroxy-4-[(4-methylbenzyl)amino]-1,8-naphthyridin-2(1H-one)] | < 50 | < 100
O=c1cc(N2CCCC(CN3CCOCC3)C2)c2cccnc2n1O (centres unmarked) [Example 144, 1-hydroxy-4-[3-(4-morpholinylmethyl)-1-piperidinyl]-1,8-naphthyridin-2(1H-one)] | < 50 | < 100
COc1cccc(CNc2cc(=O)n(O)c3ncccc23)c1 [Example 145, 1-hydroxy-4-[(3-methoxybenzyl)amino]-1,8-naphthyridin-2(1H-one)] | < 50 | < 100
O=c1cc(NCc2cccc(F)c2)c2cccnc2n1O [Example 146, 4-[(3-fluorobenzyl)amino]-1-hydroxy-1,8-naphthyridin-2(1H-one)] | < 50 | < 100
CN1CCN(c2cc(=O)n(O)c3ncccc23)CC1=O [Example 148, 1-hydroxy-4-(4-methyl-3-oxo-1-piperazinyl)-1,8-naphthyridin-2 (1H-one)] | < 50 | < 100
O=c1cc(NCc2ccc(F)cc2)c2cccnc2n1O [Example 152] | < 50 | < 100
O=c1cc(NCc2cccc(CN3CCCCC3)c2)c2cccnc2n1O [Example 153] | < 50 | < 100
O=c1cc(NCc2ccccc2F)c2cccnc2n1O [Example 155, 4-[(2-fluorobenzyl)amino]-1-hydroxy-1,8-naphthyridin-2(1H-one)] | < 50 | < 100
CC(C1CCN(c2cc(=O)n(O)c3ncccc23)CC1)N1CCOCC1 (centres unmarked) [Example 156, 1-hydroxy-4-{4-[1-(4-morpholinyl)ethyl]-1-piperidinyl}-1,8-naphthyridin-2(1H-one)] | < 50 | < 100
CC(Nc1cc(=O)n(O)c2ncccc12)c1ccccc1 (centres unmarked) [Example 157, 1-hydroxy-4-[(1-phenylethyl)amino]-1,8-naphthyridin-2(1H-one)] | < 50 | < 100
NCc1cccc(CNc2cc(=O)n(O)c3ncccc23)c1 [Example 159, 4-{[3-(aminomethyl)benzyl]amino}-1-hydroxy-1,8-naphthyridin-2(1H-one)] | < 50 | < 100
O=c1cc(NCc2ccncc2)c2cccnc2n1O [Example 160, 1-hydroxy-4-[(4-pyridinylmethyl)amino]-1,8-naphthyridin-2 (1H-one)] | < 50 | < 100
O=c1cc(NCCN2CCOCC2)c2cccnc2n1O [Example 161] | < 50 | < 100
O=c1cc(NCc2cccnc2)c2cccnc2n1O [Example 162, 1-hydroxy-4-[(3-pyrindinylmethyl)amino]-1,8-naphthyridin-2 (1H-one)] | < 50 | < 100
CCOC(=O)CN1CCN(c2cc(=O)n(O)c3ncccc23)CC1 [Example 164, ethyl[4-(1-hydroxy-2-oxo-1,2-dihydro-1,8-naphthyridin-4-yl)-1-piperazinyl]acetate] | < 50 | < 100
CC1CCN(Cc2cccc(CNc3cc(=O)n(O)c4ncccc34)c2)CC1 [Example 165, 1-hydroxy-4-({3-[(4-methyl-1-piperidinyl)methyl]benzyl}amino)-1,8-naphthyridin-2 (1H-one)] | < 50 | < 100
O=c1cc(NC(CN2CCCCC2)c2ccccc2)c2cccnc2n1O (centres unmarked) [Example 166, 1-hydroxy-4-{[1-phenyl-2-(1-piperidinyl)ethyl]amino}-1,8-naphthyridin-2 (1H-one)] | < 50 | < 100
O=c1cc(NCc2cnc(-c3ccccc3)[nH]2)c2cccnc2n1O [Example 167, 1-hydroxy-4-{[(2-phenyl-1-imidazole-5-yl)methyl]amino}-1,8-naphthyridin-2 (1H-one)] | < 50 | < 100
O=C1N[C@H]2CCCC[C@@H]2Nc2c1c(=O)n(O)c1ncccc21 [Example 169, (8aS, 12aS)-5-hydroxy-8,8a,9,10,11,12,12a,13-octahydro-5H-[1,8]naphthyridino[4,3-b][1,5]benzodiazepine-6,7-dione] | < 50 | < 100
O=C1N[C@H](c2ccccc2)[C@H](c2ccccc2)Nc2c1c(=O)n(O)c1ncccc21 [Example 170, (2S, 3R)-7-hydroxy-2,3-diphenyl-3,4-dihydro-1H-[1,4]diazepino[6,5-c]-1,8-naphthyridine-5,6(2H, 7H)-dione] | < 50 | < 100
